Results: patent US8329141B2, “Locoregional internal radionuclide ablation of abnormal tissues” (Board of Regents, The University of Texas System, priority 2004, dated 2012)

Experiments:
[1] = In vivo local sequestration at the injection site by serial scintigrams (intramuscular or intratumoral injection); set-up: species or system Fischer rats
Description: To further study the localization of unsealed radiopharmaceuticals after injection, in vivo imaging studies were carried out comparing ^111In DTPA (In-DTPA) (negative control) and Indium-111-Iron Macroaggregate (^111In-IMA) (positive control) to ^111In—Cl. ^111In emits gamma rays that can be detected using a gamma camera. ^111In-IMA was generated according to methods disclosed in U.S. Ser. No. 10/724,027, incorporated herein by reference. Each radiopharmaceutical was administered by intramuscular injection into the thigh muscle of Fischer rats which weighed approximately 200 grams. Two different doses of ^111In—Cl were administered to the rats, 0.4 and 0.8 mCi in 0.2 ml saline. Distribution of the ^111In—Cl was determined through serial scintigrams. […] In comparison, when ^111In-IMA was administered to rats, consistent retention (84%) of the ^111In-IMA was found 70 hours after administration (FIG. 8). Persistent intramuscular localization of ^111In—Cl was also found in rats for both dose levels of ^111In—Cl, with over 50% of the injected ^111In—Cl remaining in the injection site after three days.
To investigate whether the addition of free iron to radionuclides would increase the locoregional retention of various radionuclides, admixtures of ^67Ga-citrate, YCl3, or ^111In—Cl, were prepared with FeCl3.6H2O at 1-5 mg Fe/ml. Each radionuclide combination/admixture was administered either by intramuscular (IM) injection into the thigh muscle of the left leg (0.1-1.0 mCi) or by intratumoral (IT) injection into a tumor in the right leg (0.4-5.0 mCi) of Fischer rats. Distribution of the radionuclide was determined through serial scintigrams. Whole body images were acquired with a Siemens M-CAM camera using respective photo peaks of Ga-67, Tl-201 (for Y-90), or In-111, and 15-20% windows in photo energy. The typical imaging time was 0.5 to 5 minutes. A respective standard was present in the field of view (0.1-0.5 mCi), and used for image quantification by comparing images with the standard and normalizing the initial injection time as 100%. The Fe content in each combination/admixture was 1 mg in the total injectate.

[2] = intravenous (Hirano et al. 1993); cited from earlier work

## [Cl][90Y]([Cl])[Cl] [YCl3, Yttrium-90 chloride]
[1]; admixture with FeCl3.6H2O, intramuscular or intratumoral injection
  retention time with free iron: Increase in the retention time
[1]; intramuscular injection in rats, without free iron, FIG. 15
  time over which cleared from the injection site: approximately 20 hours
[1]; intramuscular injection, without free iron
  retention in the injection site: not locally sequestered
[2]
  formation of colloidal material in blood plasma: dose-dependent formation of colloidal material
  primary target organs: liver and spleen
